Legend:
neutrophils = assay: Neutrophil viability with free or encapsulated HCQ; assay type: cell-based
[1] = Lethality after intravenous administration of HCQ in mouse; assay type: in vivo
[2] = target: RCL-derived NE binding peptide (NEBP)

Molecule: CCN(CCO)CCCC(C)Nc1ccnc2cc(Cl)ccc12 (stereo not shown) [free HCQ, hydroxychloroquine]
- concentration at which neutrophil viability is affected (neutrophils): ≥ 10^3 ng/ml
- lethality [1]: high lethality

B1: human neutrophil elastase (h-NE) (protein)
chain: IVGGRRARPHAWPFMVSLQLRGGHFCGATLIAPNFVMSAAHCVANVNVRAVRVVLGAHNLSRREPTRQVFAVQRIFENGYDPVNLLNDIVILQLNGSATINANVQVAQLPAQGRRLGNGVQCLAMGWGLLGRNRGIASVLQELNVTVVTSLCRRSNVCTLVRGRQAGVCFGDSGSPLVCNGLIHGIASFVRGGCASGLYPDAFAPVAQFVNWIDSIIQ
- HPLC-based analysis of cleavage by NE [2]: such peptides are not cleaved by NE

B2: mouse neutrophil elastase (m-NE) (protein)
chain: IVGGRPARPHAWPFMASLQRRGGHFCGATLIARNFVMSAAHCVNGLNFRSVQVVLGAHDLRRQERTRQTFSVQRIFENGFDPSQLLNDIVIIQLNGSATINANVQVAQLPAQGQGVGDRTPCLAMGWGRLGTNRPSPSVLQELNVTVVTNMCRRRVNVCTLVPRRQAGICFGDSGGPLVCNNLVQGIDSFIRGGCGSGLYPDAFAPVAEFADWINSIIRSHNDHLLTHPKDREGRTN
- HPLC-based analysis of cleavage by NE [2]: such peptides are not cleaved by NE

Source: patent US20230235022A1, “NEUTROPHIL ELASTASE BINDING PEPTIDES AND COMPOSITIONS THEREOF” (CASE WESTERN RESERVE UNIVERSITY, priority 2020, published 2023)
